Test results reported in patent publication US10766869B2, “Triazoles for the treatment of demyelinating dieases” (Vertex Pharmaceuticals Incorporated, priority 2015, dated 2020).
Like-named read-outs stand apart in the source and are kept apart here.

Tested on: primary rat mixed cortical cells
Experiment: In vitro myelination assay (MBP positive myelin strands, fold myelin pixels above background)
Type: cell-based
Conditions: Rattus norvegicus; for fold induction at 1 µM: 1.0 μM compound; for fold induction at 10 µM: 10.0 μM compound
Summary of the method: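 Read-out is total MBP-positive myelin strand pixels per well, detected by custom ridge-tracing software and reported as fold over untreated baseline. Primary P1 rat mixed cortical cells received compound (1.0 or 10.0 μM) for 14 days, with medium half-replaced on days 6 and 10. Standard deviation was taken across all replicates.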

[1] = relative to baseline of no added compound, read-out: Fold myelin pixels above background
[2] = read-out: Fold myelin pixels above background relative to baseline of no added compound
[3] = relative to baseline of no added compound, read-out: Fold myelin pixels above background, 1.0 μM
[4] = relative to baseline of no added compound, read-out: Fold myelin pixels above background, 10.0 μM

Row | Structure (SMILES) | fold induction at 1 µM [1] | fold induction at 10 µM [1] | fold induction at 1 µM [3] | fold induction at 10 µM [4] | also measured
1 | Cc1cc(CN2CCN(C3COC3)CC2)cc(Nc2ncn(-c3cnccn3)n2)c1 [Compound 583, N-[3-methyl-5-[[4-(oxetan-3-yl)piperazin-1-yl]methyl]phenyl]-1-pyrazin-2-yl-1,2,4-triazol-3-amine] | 10 to 100 | 10 to 100 | – | – | –
2 | COCCNC1CN(c2cc(C)cc(Nc3ncn(-c4cc(F)cc(F)c4)n3)c2)C1 [Compound 816, 1-(3,5-difluorophenyl)-N-[3-[3-(2-methoxyethylamino)azetidin-1-yl]-5-methyl-phenyl]-1,2,4-triazol-3-amine] | – | – | – | – | fold induction at 1 µM [2]: 1 to 10; fold induction at 10 µM [2]: 1 to 10
3 | CCc1cc(Nc2ncn(-c3ccc(F)cc3)n2)cc(N2CCN(C3COC3)CC2)c1 [Compound 14, N-[3-ethyl-5-[4-(oxetan-3-yl)piperazin-1-yl]phenyl]-1-(4-fluorophenyl)-1,2,4-triazol-3-amine] | – | – | 1000 to 10000 | ≤ 1 | –
4 | Cc1cc(Nc2ncn(-c3cc(F)cc(F)c3)n2)cc(N2CC3(COC3)C2)c1 [Compound 171, 1-(3,5-difluorophenyl)-N-[3-methyl-5-(6-oxa-2-azaspiro[3.3]heptan-2-yl)phenyl]-1,2,4-triazol-3-amine] | – | – | 10 to 100 | 100 to 1000 | –
5 | Cc1cc(Nc2ncn(-c3cccc(F)n3)n2)cc(N2CCN(C3COC3)CC2)c1 [Compound 154, 1-(6-fluoro-2-pyridyl)-N-[3-methyl-5-[4-(oxetan-3-yl)piperazin-1-yl]phenyl]-1,2,4-triazol-3-amine] | – | – | 100 to 1000 | 100 to 1000 | –
6 | Cc1cc(N2CC(N3CCOCC3)C2)cc(Nc2ncn(-c3cc(F)cc(F)c3)n2)c1C [Compound 739, 1-(3,5-difluorophenyl)-N-[2,3-dimethyl-5-(3-morpholinoazetidin-1-yl)phenyl]-1,2,4-triazol-3-amine] | 10 to 100 | 10 to 100 | – | – | –
7 | Fc1cc(F)cc(-n2cnc(Nc3cc(N4CC(N5CCOCC5)C4)cc(N4CC(N5CCOCC5)C4)c3)n2)c1 [Compound 868, N-[3,5-bis(3-morpholinoazetidin-1-yl)phenyl]-1-(3,5-difluorophenyl)-1,2,4-triazol-3-amine] | – | – | – | – | fold induction at 1 µM [2]: 1 to 10; fold induction at 10 µM [2]: 1 to 10
8 | FC(F)c1cccc(-n2cnc(Nc3cc(C(F)F)cc(N4CCN(C5COC5)CC4)n3)n2)c1 [Compound 718, 4-(difluoromethyl)-N-[1-[3-(difluoromethyl)phenyl]-1,2,4-triazol-3-yl]-6-[4-(oxetan-3-yl)piperazin-1-yl]pyridin-2-amine] | 10 to 100 | 100 to 1000 | – | – | –
9 | COc1cc(F)cc(-n2cnc(Nc3cc(C4CC4)cc(N4CCN(C5COC5)CC4)c3)n2)c1 [Compound 388, N-[3-cyclopropyl-5-[4-(oxetan-3-yl)piperazin-1-yl]phenyl]-1-(3-fluoro-5-methoxy-phenyl)-1,2,4-triazol-3-amine] | 10 to 100 | ≤ 1 | – | – | –
10 | CC(=O)N1CCN(c2cc(C(F)(F)F)cc(Nc3ncn(-c4cc(F)cc(F)c4)n3)n2)CC1 [Compound 555, 1-[4-[6-[[1-(3,5-difluorophenyl)-1,2,4-triazol-3-yl]amino]-4-(trifluoromethyl)-2-pyridyl]piperazin-1-yl]ethanone] | 10 to 100 | 100 to 1000 | – | – | –
11 | Cc1cc(Nc2ncn(-c3cc(F)cc(F)c3)n2)nc(N2CC(N3CCOCC3)C2)c1 [Compound 537, N-[1-(3,5-difluorophenyl)-1,2,4-triazol-3-yl]-4-methyl-6-(3-morpholinoazetidin-1-yl)pyridin-2-amine] | 1 to 10 | ≤ 1 | – | – | –
12 | Cc1cc(Nc2ncn(-c3ccccc3)n2)cc(N2CCN(C(C)C)CC2)c1 [Compound 326, N-[3-(4-isopropylpiperazin-1-yl)-5-methyl-phenyl]-1-phenyl-1,2,4-triazol-3-amine] | – | – | 1000 to 10000 | ≤ 1 | –
13 | Fc1cc(F)cc(-n2cnc(Nc3cc(N4CCN(C5COC5)CC4)cc(C(F)(F)F)c3)n2)c1 [Compound 130, 1-(3,5-difluorophenyl)-N-[3-[4-(oxetan-3-yl)piperazin-1-yl]-5-(trifluoromethyl)phenyl]-1,2,4-triazol-3-amine] | – | – | 1000 to 10000 | 100 to 1000 | –
14 | Cc1cc(Nc2ncn(-c3cncc(C)n3)n2)cc(N2CCN(C3CC3)CC2)c1 [Compound 420, N-[3-(4-cyclopropylpiperazin-1-yl)-5-methyl-phenyl]-1-(6-methylpyrazin-2-yl)-1,2,4-triazol-3-amine] | 1 to 10 | 1 to 10 | – | – | –
15 | Cc1cc(Nc2ncn(-c3cccc(Cl)c3)n2)cc(N2CCN(C)CC2)c1 [Compound 141, 1-(3-chlorophenyl)-N-[3-methyl-5-(4-methylpiperazin-1-yl)phenyl]-1,2,4-triazol-3-amine] | – | – | 100 to 1000 | ≤ 1 | –
16 | Cc1cc(Nc2ncn(-c3cc(F)cc(F)c3)n2)cc(N2CCN(C(CO)CO)CC2)c1 [Compound 79, 2-[4-[3-[[1-(3,5-difluorophenyl)-1,2,4-triazol-3-yl]amino]-5-methyl-phenyl]piperazin-1-yl]propane-1,3-diol] | – | – | 10 to 100 | ≤ 1 | –
17 | Fc1cc(Nc2ncn(-c3cccc(F)c3)n2)cc(N2CCN(C3COC3)CC2)c1 [Compound 594, N-[3-fluoro-5-[4-(oxetan-3-yl)piperazin-1-yl]phenyl]-1-(3-fluorophenyl)-1,2,4-triazol-3-amine] | 1 to 10 | 1 to 10 | – | – | –
18 | CCN1CCOC(CNc2cc(C)cc(Nc3ncn(-c4cc(F)cc(F)c4)n3)c2)C1 (stereo not drawn) [Compound 893, N3-[1-(3,5-difluorophenyl)-1,2,4-triazol-3-yl]-N1-[(4-ethylmorpholin-2-yl)methyl]-5-methyl-benzene-1,3-diamine] | – | – | – | – | fold induction at 1 µM [2]: 1 to 10; fold induction at 10 µM [2]: ≤ 1
19 | [2H]C([2H])([2H])C([2H])(N1CCN(c2cc(C)cc(Nc3ncn(-c4ccccc4)n3)c2)CC1)C([2H])([2H])[2H] [Compound 1086, N-[3-methyl-5-[4-[1,2,2,2-tetradeuterio-1-(trideuteriomethyl)ethyl]piperazin-1-yl]phenyl]-1-phenyl-1,2,4-triazol-3-amine] | – | – | – | – | fold induction at 1 µM [2]: 10 to 100; fold induction at 10 µM [2]: ≤ 1
20 | Cc1cc(Nc2ncn(-c3cc(F)cc(F)c3)n2)cc(N2CCC(N3CCOCC3C)CC2)c1 (stereo not drawn) [Compound 988, 1-(3,5-difluorophenyl)-N-[3-methyl-5-[4-(3-methylmorpholin-4-yl)-1-piperidyl]phenyl]-1,2,4-triazol-3-amine] | – | – | – | – | fold induction at 1 µM [2]: 10 to 100; fold induction at 10 µM [2]: 1 to 10
21 | Cc1cc(Nc2ncn(-c3cc(F)cc(F)c3)n2)cc(N2CCN(C(=O)N3CCOCC3)CC2)c1 [Compound 582, [4-[3-[[1-(3,5-difluorophenyl)-1,2,4-triazol-3-yl]amino]-5-methyl-phenyl]piperazin-1-yl]-morpholino-methanone] | 1 to 10 | 10 to 100 | – | – | –
22 | Cc1cc(Nc2ncn(-c3cc(F)cc(F)c3)n2)cc(N2CC(N3CCOC[C@H]3C)C2)c1 [Compound 670, 1-(3,5-difluorophenyl)-N-[3-methyl-5-[3-[(3R)-3-methylmorpholin-4-yl]azetidin-1-yl]phenyl]-1,2,4-triazol-3-amine] | 10 to 100 | 10 to 100 | – | – | –
23 | Cc1cc(Nc2ncn(-c3cnccn3)n2)cc(N2CC3(C2)CN(C(C)C)C3)c1 [Compound 967, N-[3-(2-isopropyl-2,6-diazaspiro[3.3]heptan-6-yl)-5-methyl-phenyl]-1-pyrazin-2-yl-1,2,4-triazol-3-amine] | – | – | – | – | fold induction at 1 µM [2]: 10 to 100; fold induction at 10 µM [2]: ≤ 1
24 | Cc1cc(Nc2ncn(-c3ccccc3F)n2)cc(N2CCN(C3COC3)CC2)c1 [Compound 223, 1-(2-fluorophenyl)-N-[3-methyl-5-[4-(oxetan-3-yl)piperazin-1-yl]phenyl]-1,2,4-triazol-3-amine] | – | – | 10 to 100 | 10 to 100 | –
25 | CC(=O)N1CCCC(c2cc(C)cc(Nc3ncn(-c4ccncn4)n3)c2)C1 (stereo not drawn) [Compound 449, 1-[3-[3-methyl-5-[(1-pyrimidin-4-yl-1,2,4-triazol-3-yl)amino]phenyl]-1-piperidyl]ethanone] | 100 to 1000 | ≤ 1 | – | – | –
26 | Cc1cc(Nc2ncn(-c3cc(F)cc(F)c3)n2)cc([C@@]2(C)CN(C3COC3)CCO2)c1 (single isomer, unassigned) [Compound 667] | 10 to 100 | 1 to 10 | – | – | –
27 | Cc1cc(Nc2ncn(-c3ccc(C#N)cc3)n2)cc(N2CCCC2)c1 [Compound 186, 4-[3-(3-methyl-5-pyrrolidin-1-yl-anilino)-1,2,4-triazol-1-yl]benzonitrile] | – | – | 10 to 100 | 10 to 100 | –
28 | Cc1cc(Nc2ncn(-c3ccccc3)n2)cc(C2CCCN(C)C2)c1 (stereo not drawn) [Compound 60, N-[3-methyl-5-(1-methyl-3-piperidyl)phenyl]-1-phenyl-1,2,4-triazol-3-amine] | – | – | 1000 to 10000 | ≤ 1 | –
29 | Cc1cc(Nc2ncn(-c3cc(F)cc(F)c3)n2)cc(C(=O)N2CCN(C3COC3)CC2)c1 [Compound 864, [3-[[1-(3,5-difluorophenyl)-1,2,4-triazol-3-yl]amino]-5-methyl-phenyl]-[4-(oxetan-3-yl)piperazin-1-yl]methanone] | – | – | – | – | fold induction at 1 µM [2]: 10 to 100; fold induction at 10 µM [2]: 10 to 100
30 | Cc1cc(Nc2ncn(-c3ccc(F)c(F)c3)n2)cc(O[C@H]2CCCN(C3COC3)C2)c1 (single isomer, unassigned) [Compound 632] | 10 to 100 | ≤ 1 | – | – | –
